system: Cryptocaryon irritans; assay: Examples 3 and 4: oral administration of single inhibitors and a combination against Cryptocaryon irritans on Pagrus major; format: in vivo; conditions: 60 mg/kg fish body weight/day for three days; 60 parasites per plot; P=<0.01
Text: During the rearing period, 1.4 liters/min. of seawater was supplied. […] After exposure, seven fish each were moved into six 100-liter aquariums. During the rearing period, 1.4 liters/min. of seawater was supplied.

Compound	growth rate of parasites (body length as percentage of control plot), difference to control plot
CN(Cc1cnc2nc(N)nc(N)c2n1)c1ccc(C(=O)N[C@@H](CCC(=O)O)C(=O)O)cc1 [MTX, methotrexate]	statistically significant difference
N=C(N)c1ccc(OCCCCCOc2ccc(C(=N)N)cc2)cc1.O=S(=O)(O)CCO.O=S(=O)(O)CCO [PMD, isethionic acid pentamidine salt]	statistically significant difference
COc1cc(Cc2cnc(N)nc2N)cc(OC)c1OC [TMP, trimethoprim]	statistically significant difference

same assay, conditions: 300 mg/kg fish body weight/day for three days; 60 parasites per plot; P=<0.01

Compound	growth rate of parasites (body length as percentage of control plot), difference to control plot
COc1cc(NS(=O)(=O)c2ccc(N)cc2)nc(OC)n1 [SDMX, sulfadimethoxine]	statistically significant difference
Cc1cc(NS(=O)(=O)c2ccc(N)cc2)nc(C)n1 [SID, sulfisomidine]	statistically significant difference
Cc1ccnc(NS(=O)(=O)c2ccc(N)cc2)n1 [SMDN, sulfamerazine]	statistically significant difference
COc1cc(NS(=O)(=O)c2ccc(N)cc2)ncn1 [SMMX, sulfamonomethoxine]	statistically significant difference
Cc1nnc(NS(=O)(=O)c2ccc(N)cc2)s1 [SMZ, sulfamethizole]	statistically significant difference
sulfisozole [SIZ]	statistically significant difference

system: Cryptocaryon irritans; assay: Example 1: oral administration against parasitism of Cryptocaryon irritans on Pagrus major (1); conditions: 50 mg trimethoprim/kg body weight/day orally for three days; three days after the exposure

Compound	number of parasites (left gills, FIG. 1) relative to control plot
COc1cc(Cc2cnc(N)nc2N)cc(OC)c1OC [TMP, trimethoprim]	tend to be large

Reference: patent US9265777B2, “Antiparasitic agent for fish and method of controlling proliferation of fish parasites” (NIPPON SUISAN KAISHA, LTD., priority 2009, dated 2016)
